{"source": "patent US5876694A", "about": "“Azavesamicols” (priority 1997, dated 1999)", "key": {"[1]": {"assay": "Tissue distribution of radiotracer in rats", "type": "in vivo, male Wistar rats", "conditions": "for tissue uptake at 5 min / tissue uptake at 0.5 h / tissue uptake at 1 h / tissue uptake at 3 h: rat, iv; for tissue uptake at 0.5 h: 30 min; for tissue uptake at 1 h: 60 min; for tissue uptake at 3 h: 180 min", "description": "Tissue Distribution Experiments\nFour groups of male Wistar rats (n=4) weighing 200-350 g were used in these experiments. Each animal received, while under ether anesthesia, an intravenous injection of the radiotracer (3-5 uCi) dissolved in 0.1 mL of 50% aqueous ethanol. At 5, 30, 60 and 180 min post-injection, blood was collected from the anesthetized animal by cardiac puncture, and the animal was immediately sacrificed by cardiectomy. The organs and tissues of interest were harvested, transferred to preweighed tubes and counted in a Beckman gamma counter. The tubes were subsequently reweighed to give the weight of the corresponding tissues. Preweighed tubes containing 1 mL samples of a 1:100 dilution of the injected dose were also counted and used as reference for calculating the tissue accumulation of radioactivity. The accumulation of radiotracer was expressed as a percentage of injected dose per gram of tissue.\nThe animals were injected intravenously with 4.9 uCi of the radiotracer i\n0.1 ml of 50% aq. EtOH.\nThe animals were injected with 3.7 uCi of the radiotracer in 0.1 ml of 50"}, "[2]": {"assay": "Blocking experiment 1: co-injection of (dl)-vesamicol with radiotracer", "type": "in vivo, male Wistar rats", "conditions": "rat, iv, 60 min", "description": "Two separate experiments each utilizing two groups of male Wistar rats (n=3) were performed.\nExperiment 1. Animals in Group 1 (control) each received an intravenous injection of the radiotracer (4.7 uCi in 100 uL of 50% aq. EtOH). […] At 60 min post-injection, the animals were sacrificed and the tissues were harvested as outlined above.\nAnimals in Group 1 received a single i.v. injection of radiotracer.\nAnimals in Group 2 were administered with a mixture of the radiotracer an\nAll animals were sacrificed a\n60 min postradiotracer injection."}, "[3]": {"conditions": "heart, read-out: Tissue distribution, heart"}, "[4]": {"conditions": "kidney, read-out: Tissue distribution, kidney"}, "[5]": {"conditions": "liver, read-out: Tissue distribution, liver"}, "[6]": {"conditions": "lung, read-out: Tissue distribution, lung"}, "[7]": {"conditions": "muscle, read-out: Tissue distribution, muscle"}, "[8]": {"conditions": "spleen, read-out: Tissue distribution, spleen"}, "[9]": {"conditions": "thyroid, read-out: Tissue distribution, thyroid"}}, "note": "Like-named read-outs stand apart in the source and are kept apart here.", "data": [{"compound": "O[C@@H]1CCN(Cc2cccc([125I])c2)C[C@H]1N1CCC(c2ccccc2)CC1", "note": "(single isomer, unassigned) [(-)-[^125 I]12h, (+)- and (-)-4-hydroxy-1-(3-[I^125]iodobenzyl)-3-(4-phenyl-piperidinyl)piperidine]", "values": [{"measurement": "tissue uptake at 5 min", "setting": "[1]; [3]", "result": 1.32, "unit": "%ID/g"}, {"measurement": "tissue uptake at 0.5 h", "setting": "[1]; [3]", "result": 0.75, "unit": "%ID/g"}, {"measurement": "tissue uptake at 1 h", "setting": "[1]; [3]", "result": 0.58, "unit": "%ID/g"}, {"measurement": "tissue uptake at 3 h", "setting": "[1]; [3]", "result": 0.5, "unit": "%ID/g"}, {"measurement": "tissue uptake at 5 min", "setting": "[1]; [4]", "result": 3.71, "unit": "%ID/g"}, {"measurement": "tissue uptake at 0.5 h", "setting": "[1]; [4]", "result": 3.53, "unit": "%ID/g"}, {"measurement": "tissue uptake at 1 h", "setting": "[1]; [4]", "result": 3.13, "unit": "%ID/g"}, {"measurement": "tissue uptake at 3 h", "setting": "[1]; [4]", "result": 3.27, "unit": "%ID/g"}, {"measurement": "tissue uptake at 5 min", "setting": "[1]; [5]", "result": 2.07, "unit": "%ID/g"}, {"measurement": "tissue uptake at 0.5 h", "setting": "[1]; [5]", "result": 2.35, "unit": "%ID/g"}, {"measurement": "tissue uptake at 1 h", "setting": "[1]; [5]", "result": 2.63, "unit": "%ID/g"}, {"measurement": "tissue uptake at 3 h", "setting": "[1]; [5]", "result": 2.23, "unit": "%ID/g"}, {"measurement": "tissue uptake at 5 min", "setting": "[1]; [6]", "result": 5.9, "unit": "%ID/g"}, {"measurement": "tissue uptake at 0.5 h", "setting": "[1]; [6]", "result": 3.21, "unit": "%ID/g"}, {"measurement": "tissue uptake at 1 h", "setting": "[1]; [6]", "result": 2.41, "unit": "%ID/g"}, {"measurement": "tissue uptake at 3 h", "setting": "[1]; [6]", "result": 2.01, "unit": "%ID/g"}, {"measurement": "tissue uptake at 5 min", "setting": "[1]; [7]", "result": 0.46, "unit": "%ID/g"}, {"measurement": "tissue uptake at 0.5 h", "setting": "[1]; [7]", "result": 0.3, "unit": "%ID/g"}, {"measurement": "tissue uptake at 1 h", "setting": "[1]; [7]", "result": 0.28, "unit": "%ID/g"}, {"measurement": "tissue uptake at 3 h", "setting": "[1]; [7]", "result": 0.27, "unit": "%ID/g"}, {"measurement": "tissue uptake at 5 min", "setting": "[1]; [8]", "result": 1.04, "unit": "%ID/g"}, {"measurement": "tissue uptake at 0.5 h", "setting": "[1]; [8]", "result": 1.24, "unit": "%ID/g"}, {"measurement": "tissue uptake at 1 h", "setting": "[1]; [8]", "result": 1.17, "unit": "%ID/g"}, {"measurement": "tissue uptake at 3 h", "setting": "[1]; [8]", "result": 1.28, "unit": "%ID/g"}, {"measurement": "tissue uptake at 5 min", "setting": "[1]; [9]", "result": 2.67, "unit": "%ID/g"}, {"measurement": "tissue uptake at 0.5 h", "setting": "[1]; [9]", "result": 3.15, "unit": "%ID/g"}, {"measurement": "tissue uptake at 1 h", "setting": "[1]; [9]", "result": 5.87, "unit": "%ID/g"}, {"measurement": "tissue uptake at 3 h", "setting": "[1]; [9]", "result": 11.6, "unit": "%ID/g"}, {"measurement": "brain level over time (in words)", "setting": "[1]; throughout the study (5 to 180 min)", "result": "remained essentially unchanged"}, {"measurement": "tissue uptake at 1 h", "setting": "[2]; blood, Group 1: radiotracer alone, read-out: Blocking study, blood", "result": 0.09, "unit": "%ID/g"}, {"measurement": "tissue uptake at 1 h", "setting": "[2]; blood, Group 2: with (dl)vesamicol hydrochloride, read-out: Blocking study, blood", "result": 0.09, "unit": "%ID/g"}, {"measurement": "tissue uptake at 1 h", "setting": "[2]; brain, Group 1: radiotracer alone, read-out: Blocking study, brain", "result": 0.97, "unit": "%ID/g"}, {"measurement": "tissue uptake at 1 h", "setting": "[2]; brain, Group 2: with (dl)vesamicol hydrochloride, read-out: Blocking study, brain", "result": 0.29, "unit": "%ID/g"}, {"measurement": "tissue uptake at 1 h", "setting": "[2]; gonads, Group 1: radiotracer alone, read-out: Blocking study, gonads", "result": 0.21, "unit": "%ID/g"}, {"measurement": "tissue uptake at 1 h", "setting": "[2]; gonads, Group 2: with (dl)vesamicol hydrochloride, read-out: Blocking study, gonads", "result": 0.22, "unit": "%ID/g"}, {"measurement": "tissue uptake at 1 h", "setting": "[2]; heart, Group 1: radiotracer alone, read-out: Blocking study, heart", "result": 0.5, "unit": "%ID/g"}, {"measurement": "tissue uptake at 1 h", "setting": "[2]; heart, Group 2: with (dl)vesamicol hydrochloride, read-out: Blocking study, heart", "result": 0.16, "unit": "%ID/g"}, {"measurement": "tissue uptake at 1 h", "setting": "[2]; kidney, Group 1: radiotracer alone, read-out: Blocking study, kidney", "result": 3.11, "unit": "%ID/g"}, {"measurement": "tissue uptake at 1 h", "setting": "[2]; kidney, Group 2: with (dl)vesamicol hydrochloride, read-out: Blocking study, kidney", "result": 0.89, "unit": "%ID/g"}, {"measurement": "tissue uptake at 1 h", "setting": "[2]; liver, Group 1: radiotracer alone, read-out: Blocking study, liver", "result": 2.45, "unit": "%ID/g"}, {"measurement": "tissue uptake at 1 h", "setting": "[2]; liver, Group 2: with (dl)vesamicol hydrochloride, read-out: Blocking study, liver", "result": 2.31, "unit": "%ID/g"}, {"measurement": "tissue uptake at 1 h", "setting": "[2]; lung, Group 1: radiotracer alone, read-out: Blocking study, lung", "result": 1.96, "unit": "%ID/g"}, {"measurement": "tissue uptake at 1 h", "setting": "[2]; lung, Group 2: with (dl)vesamicol hydrochloride, read-out: Blocking study, lung", "result": 0.76, "unit": "%ID/g"}, {"measurement": "tissue uptake at 1 h", "setting": "[2]; muscle, Group 1: radiotracer alone, read-out: Blocking study, muscle", "result": 0.26, "unit": "%ID/g"}, {"measurement": "tissue uptake at 1 h", "setting": "[2]; muscle, Group 2: with (dl)vesamicol hydrochloride, read-out: Blocking study, muscle", "result": 0.12, "unit": "%ID/g"}, {"measurement": "tissue uptake at 1 h", "setting": "[2]; spleen, Group 1: radiotracer alone, read-out: Blocking study, spleen", "result": 1.1, "unit": "%ID/g"}, {"measurement": "tissue uptake at 1 h", "setting": "[2]; spleen, Group 2: with (dl)vesamicol hydrochloride, read-out: Blocking study, spleen", "result": 0.58, "unit": "%ID/g"}, {"measurement": "tissue uptake at 1 h", "setting": "[2]; thyroid, Group 1: radiotracer alone, read-out: Blocking study, thyroid", "result": 5.58, "unit": "%ID/g"}, {"measurement": "tissue uptake at 1 h", "setting": "[2]; thyroid, Group 2: with (dl)vesamicol hydrochloride, read-out: Blocking study, thyroid", "result": 6.55, "unit": "%ID/g"}]}]}
